Data from patent publication US10039833B2, “Drug delivery system to increase bioavailability” (OHIO STATE INNOVATION FOUNDATION, priority 2013, dated 2018).
Values after ≈ are worked out from the molar mass of the structure shown.

Test: physchem

Q: For `NCC(=O)Nc1ccc(-n2nc(C(F)(F)F)cc2-c2ccc3c(ccc4ccccc43)c2)cc1` [AR-12], which solubility (USP biphthalate buffer, pH 3.5, aqueous buffer) is on record?
A: The solubility was 0.18 µg/mL (≈ 0.391 µM).

Q: And the solubility (USP biphthalate buffer, pH 5, aqueous buffer)?
A: The solubility was 0.07 µg/mL (≈ 0.152 µM).

Q: What about the solubility (USP chloride buffer, pH 1.2, simulated gastric fluid) of the same compound?
A: The solubility was 65.3 µg/mL (≈ 142 µM).

Q: And the solubility (USP phosphate buffer, pH 7.4, aqueous buffer)?
A: Its solubility is 0.06 µg/mL (≈ 0.13 µM).
